In patent US20240425478A1, “CYCLOPENTYLPYRAZOLE CDK2 INHIBITORS” (Genentech, Inc., priority 2021, published 2024):
Like-named read-outs stand apart in the source and are kept apart here.

What was measured:
[1] = target: T1, Cyclin Dependent Kinase 1/Cyclin A2 (CDK1-cycA2) (Homo sapiens, UniProt P06493); assay: CDK1-cycA2 TR-FRET (Lance) enzyme assay; type: biochemical; details: Table O, enzymatic assay
T1 construct: purchased ProQinase 0134-0054-1
Method: (§1) Cyclin Dependent Kinase 1/Cyclin A2 (CDK1-cycA2), Cyclin Dependent Kinase 2/Cyclin E1 (CDK2-cycE1), Cyclin Dependent Kinase 4/Cyclin D3 (CDK4-cycD3) and Cyclin Dependent Kinase 6/Cyclin D3 (CDK6-cycD3) enzyme assays were carried out as described below.
(1) CDK1-cycA2 TR-FRET (Lance®)
(§2) An Echo acoustic dispenser is used to create dose responses of compound dissolved in DMSO into a 384-well microplate. A 5 μL volume of enzyme mix is added to the well, and pre-incubated with compound for 30 minutes. […] Buffer conditions are 50 mM HEPES, pH 7.5, 10 mM MgCl2, 2 mM TCEP, 0.05% BGG and 0.01% Brij 35. The reaction is quenched with 5 μL of EDTA in detection buffer (15 mM [EDTA final]). Finally, a 5 μL TR-FRET detection mix is added to the quenched reaction, which includes Europium labeled anti-phospho-4E-BP1. […] Signal is a ratio of the Acceptor and Donor fluorescence. Inhibition constants are calculated via the Morrison equation.

[2] = target: T2, Cyclin Dependent Kinase 2/Cyclin E1 (CDK2-cycE1) (Homo sapiens, UniProt P24941); assay: CDK2-cycE1 TR-FRET (LANCE) enzyme assay; type: biochemical; details: for Ki: enzymatic assay, read-out: CDK2 Ki; for FS CDK1/CDK2 / FS CDK4/CDK2: fold selectivity; for increased fold-selectivity CDK4/CDK2 over Comparator C: (+) sign after FS CDK4/CDK2;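 on improvement in potency against CDK2 (Ki) over Comparator C: fold lower CDK2 Ki than comparator c (Ki 0.032 µM)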
T2 construct: purchased ProQinase 0050-0055-1
Method: as §1
(ii) CDK2-cycE1 TR-FRET (LANCE®)
as §2, with “anti-phospho-MBP.” for “anti-phospho-4E-BP1.”, “equation. Enzyme source of CDK2-cycE1 is ProQinase, catalog #: 0050-0055-1.” for “equation.”

[3] = target: T3, Cyclin Dependent Kinase 4/Cyclin D3 (CDK4-cycD3) (Homo sapiens, UniProt P11802); assay: CDK4-cycD3 TR-FRET (LANCE) enzyme assay; type: biochemical; details: Table O, enzymatic assay
T3 construct: purchased Carna Biosciences 04-105
T3 sequence (P11802 whole entry): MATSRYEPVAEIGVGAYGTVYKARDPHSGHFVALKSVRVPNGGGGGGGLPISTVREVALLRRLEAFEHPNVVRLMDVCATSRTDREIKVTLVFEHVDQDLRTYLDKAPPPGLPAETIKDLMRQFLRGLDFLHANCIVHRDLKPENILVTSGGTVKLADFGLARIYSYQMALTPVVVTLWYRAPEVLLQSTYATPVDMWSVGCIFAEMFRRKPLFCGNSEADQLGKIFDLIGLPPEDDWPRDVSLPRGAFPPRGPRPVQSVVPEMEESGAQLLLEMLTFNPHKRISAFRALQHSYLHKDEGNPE
T3 sequence (P30281 whole entry partner): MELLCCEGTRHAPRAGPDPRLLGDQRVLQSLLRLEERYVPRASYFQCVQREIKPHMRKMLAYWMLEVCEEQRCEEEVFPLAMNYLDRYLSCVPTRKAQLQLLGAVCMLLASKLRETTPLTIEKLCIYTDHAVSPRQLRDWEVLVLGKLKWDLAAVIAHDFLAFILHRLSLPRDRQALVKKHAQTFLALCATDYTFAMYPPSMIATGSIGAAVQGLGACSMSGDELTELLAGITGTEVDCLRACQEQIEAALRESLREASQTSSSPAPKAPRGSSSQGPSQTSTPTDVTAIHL
Method: as §1
(iii) CDK4-cycD3 TR-FRET (LANCE®)
as §2

[4] = test system: OVISE (JCRB1043, CCNE1-amplified); assay: OVISE EdU incorporation cell proliferation assay (CDK2-dependent); type: cell-based; details: for IC50: cellular assay, read-out: CDK2 OVISE IC50; for FS SKOV-3/OVISE: fold selectivity; for increased fold-selectivity SKOV-3/OVISE over Comparator C: (+) sign after FS SKOV-3/OVISE; for improvement in CDK2 OVISE cell potency over Comparator C: in brackets after OVISE IC50, Comparator C 5.5 μM
Method: (§3) (i) OVISE and SKOV-3 EdU Incorporation Cell Proliferation Assays
(§4) Ovarian cancer cell proliferation is measured by incorporation of EdU (5-ethynyl-2′-deoxyuridine) into newly synthesized DNA. CDK2-dependent proliferation is determined using OVISE (JCRB1043, CCNE1-amplified) while CDK4/6-dependent effect is determined with SKOV-3 (ATCC HTB-77) which is not CCNE1-amplified.
(§5) Cells are plated in 384-well plates in RPMI medium supplemented with 10% FBS. Compounds are added at desired concentrations with a final DMSO content of 0.5%, and cells incubated at 37° C./5% CO2 for 16 hours. EdU (Life Technologies) is added to a final concentration of 0.5 μM and incubation continued for 8 hours, followed by fixation with 4% paraformaldehyde. […] Images are acquired using Yokogawa CQ1 imaging cytometer with a 10×objective. […] The IC50 for inhibition of cell division is determined by fitting the fraction of EdU-positive cells as a function of compound dose using a 4-parameter logistic model.

SKOV-3 (ATCC HTB-77) = assay: SKOV-3 EdU incorporation cell proliferation assay (CDK4/6-dependent); type: cell-based; details: Homo sapiens, cellular assay, read-out: CDK4/6 SKOV-3 IC50
Method: as §3, §4, §5

[5] = Table O, enzymatic CDK1 Ki over CDK2 Ki
[6] = Table O, enzymatic CDK4 Ki over CDK2 Ki
[7] = Table O, cellular SKOV-3 IC50 over OVISE IC50

T1 sequence (P06493 whole entry): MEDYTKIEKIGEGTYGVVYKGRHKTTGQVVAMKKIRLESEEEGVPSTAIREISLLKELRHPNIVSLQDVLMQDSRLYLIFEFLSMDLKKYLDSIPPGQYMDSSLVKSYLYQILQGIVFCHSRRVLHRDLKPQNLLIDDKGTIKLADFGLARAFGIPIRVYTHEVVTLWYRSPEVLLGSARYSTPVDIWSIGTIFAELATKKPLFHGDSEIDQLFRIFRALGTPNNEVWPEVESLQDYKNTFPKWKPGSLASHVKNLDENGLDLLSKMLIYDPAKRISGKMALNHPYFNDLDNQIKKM
T1 sequence (P20248 whole entry partner): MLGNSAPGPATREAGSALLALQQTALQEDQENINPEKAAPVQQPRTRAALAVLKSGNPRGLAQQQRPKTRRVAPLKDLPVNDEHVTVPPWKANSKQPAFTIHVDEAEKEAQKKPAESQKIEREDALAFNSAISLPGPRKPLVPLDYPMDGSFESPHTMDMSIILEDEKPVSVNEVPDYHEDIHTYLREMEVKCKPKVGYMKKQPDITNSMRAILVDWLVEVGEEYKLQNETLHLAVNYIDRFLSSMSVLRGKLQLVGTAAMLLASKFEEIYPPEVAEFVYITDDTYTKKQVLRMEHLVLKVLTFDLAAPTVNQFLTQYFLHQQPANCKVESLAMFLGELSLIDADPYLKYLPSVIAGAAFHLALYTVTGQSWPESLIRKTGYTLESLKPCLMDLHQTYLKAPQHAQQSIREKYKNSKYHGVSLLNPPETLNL

Row | Ki [1] | Ki ([2]; Table O) | FS CDK1/CDK2 [2, 5] | FS CDK4/CDK2 [2, 6] | Ki [3] | IC50 (SKOV-3 (ATCC HTB-77); SK-OV-3, Table O) | improvement in potency against CDK2 (Ki) over Comparator C ([2]; Table Q, in brackets after CDK2 Ki, Comparator C 0.032 μM) | SMILES | improvement in potency against CDK2 (Ki) over Comparator C [2] | increased fold-selectivity CDK4/CDK2 over Comparator C ([2]; Table Q) | Ki ([2]; Table Q) | FS CDK1/CDK2 ([2]; Table Q, enzymatic) | FS CDK4/CDK2 ([2]; Table Q, enzymatic) | IC50 ([4]; Table O) | FS SKOV-3/OVISE [4, 7] | increased fold-selectivity SKOV-3/OVISE over Comparator C ([4]; Table Q) | FS SKOV-3/OVISE ([4]; Table Q, cellular) | improvement in CDK2 OVISE cell potency over Comparator C ([4]; Table Q) | IC50 (SKOV-3 (ATCC HTB-77); SK-OV-3, Table Q) | increased fold-selectivity CDK1/CDK2 over Comparator C ([2]; Table Q, (+) sign after FS CDK1/CDK2)
1 | 320 nM | 14 nM | 23 | 68 | 950 nM | > 20000 nM |  | COc1ncc(Nc2cc([C@H]3CC[C@@H](OC(=O)NC(C)C)C3)[nH]n2)cn1 [Example 2FF, (1R,3S)-3-(3-((2-methoxypyrimidin-5-yl)amino)-1H-pyrazol-5-yl)cyclopentyl isopropylcarbamate] |  |  |  |  |  | 1200 nM | >17 |  |  |  |  | 
2 | 8800 nM | 480 nM | 18 | 31 | 15000 nM | > 20000 nM |  | CNc1ncc(Nc2cc([C@H]3CC[C@@H](OC(=O)NC(C)C)C3)[nH]n2)cn1 [Example 2GG, (1R,3S)-3-(3-((2-(methylamino)pyrimidin-5-yl)amino)-1H-pyrazol-5-yl)cyclopentyl isopropylcarbamate] |  |  |  |  |  | > 20000 nM | 1 |  |  |  |  | 
3 | 110 nM | 9.6 nM | 11 | 99 | 950 nM | > 20000 nM |  | COCCn1nc(Nc2cc([C@H]3CC[C@@H](OC(=O)NC(C)C)C3)[nH]n2)ccc1=O [Example 2II, (1R,3S)-3-(3-((1-(2-methoxyethyl)-6-oxo-1,6-dihydropyridazin-3-y1)amino)-1H-pyrazol-5-y1)cyclopentyl isopropylcarbamate] |  |  |  |  |  | 2600 nM | >7.7 |  |  |  |  | 
4 | 200 nM | 10 nM | 20 | 23 | 230 nM | 11000 nM |  | CC(C)NC(=O)O[C@@H]1CC[C@H](c2cc(Nc3ccc(-n4ccnc4)nc3)n[nH]2)C1 [Example 2J, (1R,3S)-3-(3-((6-(1H-imidazol-1-yl)pyridin-3-yl)amino)-1H-pyrazol-5-yl)cyclopentyl isopropylcarbamate] |  |  |  |  |  | 440 nM | 25 |  |  |  |  | 
5 | 1200 nM | 77 nM | 16 | 16 | 1200 nM | 3.2 nM |  | COc1ccc(Nc2cc([C@H]3CC[C@@H](OC(=O)NC(C)C)C3)[nH]n2)nn1 [Example 2JJ, (1R,3S)-3-(3-((6-methoxypyridazin-3-yl)amino)-1H-pyrazol-5-yl)cyclopentyl isopropylcarbamate] |  |  |  |  |  | 4100 nM | <1 |  |  |  |  | 
6 | 670 nM | 41 nM | 16 | 37 | 1500 nM | > 20000 nM | 0.8 fold | CC(C)NC(=O)O[C@@H]1CC[C@H](c2cc(Nc3ncnc(N(C)C)n3)n[nH]2)C1 [Example 2Q, (1R,3S)-3-(3-((4-(dimethylamino)-1,3,5-triazin-2-yl)amino)-1H-pyrazol-5-yl)cyclopentyl isopropylcarbamate] |  | (+) (The (+) sign in Table Q signifies desirable increased fold-selectivity of the exemplary compounds over Comparator C) | 41 nM | 16 | 37 | 2400 nM | >8.3 | (+) (The (+) sign in Table Q signifies desirable increased fold-selectivity of the exemplary compounds over Comparator C) | > 8.3 | 2.3 fold | > 20000 nM | 

Row | SMILES | Ki [1] | Ki ([2]; Table O) | FS CDK1/CDK2 [2, 5] | FS CDK4/CDK2 [2, 6] | Ki [3] | IC50 (SKOV-3 (ATCC HTB-77); SK-OV-3, Table O) | improvement in potency against CDK2 (Ki) over Comparator C ([2]; Table Q, in brackets after CDK2 Ki, Comparator C 0.032 μM) | improvement in potency against CDK2 (Ki) over Comparator C [2] | increased fold-selectivity CDK4/CDK2 over Comparator C ([2]; Table Q) | Ki ([2]; Table Q) | FS CDK1/CDK2 ([2]; Table Q, enzymatic) | FS CDK4/CDK2 ([2]; Table Q, enzymatic) | IC50 ([4]; Table O) | FS SKOV-3/OVISE [4, 7] | increased fold-selectivity SKOV-3/OVISE over Comparator C ([4]; Table Q) | FS SKOV-3/OVISE ([4]; Table Q, cellular) | improvement in CDK2 OVISE cell potency over Comparator C ([4]; Table Q) | IC50 (SKOV-3 (ATCC HTB-77); SK-OV-3, Table Q) | increased fold-selectivity CDK1/CDK2 over Comparator C ([2]; Table Q, (+) sign after FS CDK1/CDK2)
7 | CC(C)NC(=O)O[C@@H]1CC[C@H](c2cc(Nc3ccc(-n4cccn4)nc3)n[nH]2)C1 [Example 2D, (1R,3S)-3-(3-((6-(1H-pyrazol-1-yl)pyridin-3-yl)amino)-1H-pyrazol-5-yl)cyclopentyl isopropylcarbamate] | 350 nM | 14 nM | 25 | 34 | 480 nM | 14000 nM |  | 2.3 fold | (+) (The (+) sign in Table Q signifies desirable increased fold-selectivity of the exemplary compounds over Comparator C) | 14 nM | 25 | 34 | 700 nM | 20 | (+) (The (+) sign in Table Q signifies desirable increased fold-selectivity of the exemplary compounds over Comparator C) | 20 | 7.9 fold | 14000 nM | 
8 | CC(C)NC(=O)O[C@@H]1CC[C@H](c2cc(Nc3ccc(-n4cccn4)cn3)n[nH]2)C1 [Example 2DD, (1R,3S)-3-(3-((5-(1H-pyrazol-1-yl)pyridin-2-yl)amino)-1H-pyrazol-5-yl)cyclopentyl isopropylcarbamate] | 680 nM | 13 nM | 52 | 27 | 350 nM | > 20000 nM |  | 2.5 fold | (+) (The (+) sign in Table Q signifies desirable increased fold-selectivity of the exemplary compounds over Comparator C) | 13 nM | 52 | 27 | 610 nM | 23 | (+) (The (+) sign in Table Q signifies desirable increased fold-selectivity of the exemplary compounds over Comparator C) | 23 | 9 fold | 14000 nM | (+) (The (+) sign in Table Q signifies desirable increased fold-selectivity of the exemplary compounds over Comparator C)
9 | CC(C)NC(=O)O[C@@H]1CC[C@H](c2cc(Nc3cncc(N(C)C)n3)n[nH]2)C1 [Example 2P, (1R,3S)-3-(3-((6-(dimethylamino)pyrazin-2-yl)amino)-1H-pyrazol-5-yl)cyclopentyl isopropylcarbamate] | 33 nM | 4.2 nM | 7.9 | 43 | 180 nM | 5300 nM |  | 8 fold | (+) (The (+) sign in Table Q signifies desirable increased fold-selectivity of the exemplary compounds over Comparator C) | 4.2 nM | 7.9 | 43 | 370 nM | 14 | (+) (The (+) sign in Table Q signifies desirable increased fold-selectivity of the exemplary compounds over Comparator C) | 14 | 14.9 fold | 5300 nM | 
